The subject of the assay is acetylated α-tubulin in HREC. Kind of assay: Immunofluorescence staining for acetylated α-tubulin in HREC. As to conditions: 3 hours. In kind it is cell-based, human. How it is done: HREC were grown on glass bottom 24-well tissue culture plates (Cellvis, Mountain View, Calif.) coated with 2% gelatin in EGM-2. The medium was then exchanged with a combination of 500 μL saline, 2× working dilutions of compounds to be tested prepared in saline, or LMWFHSA together with 500 μl EGM-2 and incubated for the indicated times. Following treatment, the cells were fixed using 10% neutral buffered formalin for 10 minutes and permeabilized with 0.1% Triton X-100 in PBS for 5 minutes. 4% goat serum (ThermoFisher Scientific) prepared in PBS was used to block the cells for 1 hour then the cells were exposed to anti-acetylated α-tubulin clone 6-11B-1 antibody (1:1000; Santa Cruz Biotechnology, Santa Cruz, Calif.) in blocking solution overnight at 4° C. Alexa fluor 488 conjugated anti-mouse IgG (1:1000; Invitrogen, Carlsbad, Calif.) was then added for 1 hour followed by DAPI counter staining (300 nM in PBS; ThermoFisher Scientific) for 5 minutes. Randomly selected frames were photographed on an inverted microscope (Zyla sCMOS camera; Andor, South Windsor, Conn. and eclipse Ti; Nikon, Melville, N.Y.) and fluorescent intensity measured using ImageJ software (http://imagej.nih.gov/ij) (Schneider C A, et al. NIH Image to ImageJ: 25 years of image analysis. Nature methods 2012; 9:671-675). For normalization, the number of DAPI staining nuclei was determined for each frame and data presented as median FU/DAPI objects.

The source of these data is patent publication US20190240296A1, “TREATMENT OF DISEASES MEDIATED BY VASCULAR HYPERPERMEABILITY” (AMPIO PHARMACEUTICALS, INC., priority 2016, published 2019).

For the compound `O=c1cc(N2CCOCC2)oc2c(-c3ccccc3)cccc12` [LY294002], the inhibition (in general, the share of the control response that was lost under treatment) at 10 µM (Homo sapiens, 10 μM LY294002 with LMWFHSA, four experiments in triplicate, 95% CI 29-19, read-out: reduction of LMWFHSA-induced α-tubulin acetylation (percent inhibition)) worked out at 24%.

Regarding `C[S+]([O-])c1ccc(-c2nc(-c3ccncc3)c(-c3ccc(F)cc3)[nH]2)cc1` (stereo not drawn) [SB203580], the “increase of α-tubulin acetylation versus saline-DMSO controls” value (10 μM SB203580 with LMWFHSA, 95% CI 63-51) is on record as 57%. Moreover, the “increase of α-tubulin acetylation versus LMWF5A-DMSO treated cells” value (10 μM SB203580 with LMWFHSA, 95% CI 236-208) was determined as 222%.
